{
  "source": "patent US11974990B2",
  "about": "“TXNIP-TRX complex inhibitors and methods of using the same” (City of Hope, priority 2018, dated 2024)",
  "key": {"TXNIP-TRX complex": {"target": "T1, TXNIP-TRX complex (Homo sapiens, UniProt Q9H3M7)", "T1 construct": "Co-immunoprecipitation (Co-IP) of TXNIP with TRX in THP 1 monocytes cells treated with compounds under high glucose condition; endogenous in cells; host or cells: THP1 human monocytes cultured in 25 mM glucose", "T1 sequence (Q9H3M7 1-391)": "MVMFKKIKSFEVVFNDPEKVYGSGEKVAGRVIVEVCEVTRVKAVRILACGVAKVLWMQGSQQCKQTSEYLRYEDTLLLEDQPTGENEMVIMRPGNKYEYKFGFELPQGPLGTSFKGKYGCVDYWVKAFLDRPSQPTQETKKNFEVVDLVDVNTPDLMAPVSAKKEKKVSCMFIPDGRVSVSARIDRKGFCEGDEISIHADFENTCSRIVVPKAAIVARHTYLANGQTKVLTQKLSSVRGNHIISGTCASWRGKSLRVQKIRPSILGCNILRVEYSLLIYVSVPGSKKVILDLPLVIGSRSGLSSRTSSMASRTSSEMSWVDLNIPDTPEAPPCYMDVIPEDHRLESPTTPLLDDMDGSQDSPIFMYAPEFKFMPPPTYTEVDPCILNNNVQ", "assay": "Co-IP of TXNIP with TRX in THP1 monocytes treated with compounds under high glucose", "format": "cell-based", "experimental": "FIGS. 4A-4B. Co-IP with anti-TRX in THP 1 cells treated with compounds under high glucose condition. THP1 cells were treated by 10 uM compounds over night, then glucose was added up to 25 mM. The cells were cultured for 72-96 h. Cell extracts were prepared using cell extract buffer (Thermo Fisher Scientific) and Co-IP were performed with mouse anti-TRX (abcam).\nAssay 1: Co-immunoprecipitation (Co-IP) of TXNIP with TRX in THP 1 monocytes cells treated with compounds under high glucose condition. In this assay, we looked for compounds that can interfere with the interaction between TXNIP and TRX in THP-1 monocytes treated with HG. So here compounds are added to cells in culture. […] So we picked the candidates only if the results are repeatable.\nCo-IP with compounds treated THP1 under high glucose condition. THP1 cells were treated with compounds (2.5 uM) overnight and glucose was add to 25 mM and culture for 3-5 days, then coIP were carried using co-IP protocol.\n1. Transfer the cultured cells from the culture dish to a 15-mL conical tube. 2. Centrifuge at 500×g for 2 min at 4° C. and remove the supernatant. 3. Wash with ice-cold PBS and centrifuge at 500×g for 2 min at 4° C. Remove the supernatant. 4. Repeat Step 3 twice.\n5. Resuspend the cell pellet in ice-cold cell lysis buffer (1 mL per 1×10^7 cells) and incubate on ice for 10 min. 6. Sonicate cells in ice bath three times for 5 second pulses each. 7. Centrifuge at 13,000×g at 4° C. for 10 min, and transfer the supernatant to a fresh tube. Store the tube on ice for further use, or for long storage at −80° C.\n8. Resuspend the magnetic beads by pipetting up and down for several times. 9. Transfer 20 μL of bead slurry to a fresh tube. Place the tube in a magnetic separation rack […]. Carefully remove the supernatant once the solution is clear. 10. […]\nNote: Pre-clearing the lysate is recommended to reduce the non-specific binding. However, if the protein is detected by western blotting, pre-clearing may not be necessary unless a contaminating protein is interfering with visualization of the protein of interest. […]"}, "TXNIP": {"target": "T2, TXNIP (Homo sapiens, UniProt Q9H3M7)", "T2 construct": "Cell extracts were prepared; endogenous in cells; host or cells: THP1 cell lysate (25 mM glucose, 72 h)", "T2 sequence (Q9H3M7 1-391)": "T1 sequence (Q9H3M7 1-391)", "assay": "DARTS assay (drug affinity responsive target stability) in THP1 cell extracts", "format": "binding", "conditions": "THP1 extracts after 25 mM glucose 72 h; 10 and 20 minutes, 0.5 to 4 uM lanes (FIG. 15)", "experimental": "FIG. 15. […] THP1 cell were cultured in RPMI 1640 medium in 25 mM glucose for 72 hours. Cell extracts were prepared. C1 was added at the indicated concentrations and protease was added except in control cells. Aliquots were withdrawn at 10, 20, 30 and 40 minutes and loaded onto 10% SDS gels. C1: compound 1; control: without protease.\nAssay 3: DARTS Assay (drug affinity responsive target stability). We adopted the DARTS assay because it is a straightforward method to check if a compound interacts with TXNIP. In this assay, when a compound binds to its target molecule, it can reduce the rate of its proteolytic digestion.\nThe drug affinity response target stability assay (DARTS assay) is a method to identify potential protein targets (binders) of small molecules. The advantage of this method is being able to use the native small molecule without having to immobilize or modify the […] (e.g., by incorporation of biotin, fluorescent molecules, radioisotope, or photo-affinity labels). In this case, it relies on the protection against proteolysis conferred on TXNIP by interaction with a small molecule (lead compound).\nDrug affinity responsive target stability (DARTS) assay. DARTS assay was conducted according to a published protocol (Lomenick et al., 2009; Pai et al., 2015). THP1 cells were lysed with extract buffer. […]"}},
  "note": "“Also recorded” adds a separate entry of the source.",
  "data": [
    {"compound": "CC(C)C(C(=O)O)N1C(=O)c2ccncc2C1=O", "note": "(stereo not drawn) [Compound C1, 2-(1,3-dioxo-1,3-dihydro-2H-pyrrolo[3,4-c]pyridin-2-yl)-3-methylbutanoic acid]", "values": [
      {"measurement": "TXNIP association/interaction with TRX (co-IP, blot with TXNIP antibody)", "setting": "TXNIP-TRX complex; THP1, 25 mM glucose, 5 uM C1, 16-72 h time course, nuclear cell extracts", "result": "Inhibition of TXNIP-TRX interaction; also recorded: significantly reduced at 48 h"},
      {"measurement": "HG-induced TXNIP-TRX co-IP band intensity", "setting": "TXNIP-TRX complex; THP1 cells, compounds added to cells in culture overnight, glucose to 25 mM, 72-96 h, anti-TRX IP", "result": "inhibit high glucose-induced TXNIP-TRX co-immunoprecipitation; also recorded: reproducibly shows a reduction in the HG-induced band"},
      {"measurement": "protection of TXNIP from proteolysis", "setting": "TXNIP", "result": "stabilizes TXNIP by binding to it; also recorded: bind to TXNIP and prevent its proteolysis; also recorded: protects TXNIP from proteolysis"}
    ]}
  ]
}
